According to PubChem BioAssay (NCI):
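Test compounds were applied to cells in 96-well plates for 48 hours at 5 doses. GI50 marks 50% less growth. TGI marks complete inhibition of growth.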

Key:
Experiment in all cases: growth of human tumour cells (NCI), 48 h
[1] = tested on: OVCAR-3 ovarian
[2] = tested on: RXF 393 renal
[3] = tested on: ACHN renal
[4] = tested on: SN12C renal
[5] = tested on: HOP-62 NSCLC
[6] = tested on: PC-3 prostate
[7] = tested on: MOLT-4 leukemia
[8] = tested on: A498 renal
[9] = tested on: MALME-3M melanoma
[10] = tested on: CAKI-1 renal

| Compound | GI50 [1] [µM] | TGI [1] [µM] | GI50 [2] [µM] | TGI [2] [µM] | GI50 [3] [µM] | TGI [3] [µM] | GI50 [4] [µM] | TGI [4] [µM] | GI50 [5] [µM] | TGI [5] [µM] | GI50 [6] [µM] | TGI [6] [µM] | GI50 [7] [µM] | TGI [7] [µM] | GI50 [8] [µM] | TGI [8] [µM] | GI50 [9] [µM] | TGI [9] [µM] | GI50 [10] [µM] | TGI [10] [µM] |
| --- | --- | --- | --- | --- | --- | --- | --- | --- | --- | --- | --- | --- | --- | --- | --- | --- | --- | --- | --- | --- |
| COc1ccc2c(c1)c1nc3cc(C)c(C)cc3nc1n2CCN(C)C | 1.13 | 2.55 | 1.22 | 2.88 | 0.375 | 1.48 | 0.534 | 1.99 | 0.899 | 3.37 | 1.04 | 2.48 | 0.42 | 4.94 | 1.25 | 2.58 | 1.11 | 2.53 | 0.632 | 2.1 |
| COc1cc2c(cc1OC)C(CC1(O)CCCCC1)N(S(=O)(=O)c1ccc(C)cc1)CC2 (centres undefined) | > 10 | > 10 | > 10 | > 10 | > 10 | > 10 | > 10 | > 10 | > 10 | > 10 | > 10 | > 10 | > 10 | > 10 | > 10 | > 10 | > 10 | > 10 | > 10 | > 10 |
| CN1C(=O)C(=Cc2cn(Cc3ccccc3)c3ccccc23)C(=O)N(C)C1=O | 20.8 | > 100 | 23.1 | > 100 | 51.8 | > 100 | 54.8 | > 100 | 43 | > 100 | 27 | > 100 | 68.3 | > 100 | 0.518 | 1.19 | 42.1 | > 100 | – | > 25.5 |
| C[C@@H](NC(=O)[C@@H](CC(=O)N1CCC(N2CCCCC2)CC1)N1C(=O)[C@@H](N2C(=O)OC[C@@H]2c2ccccc2)[C@H]1/C=C/c1cccc(Cl)c1)c1ccccc1 | 1.99 | 4.49 | 2.15 | 3.98 | 2.31 | 6.22 | 2.9 | 8.85 | 4.16 | 18.4 | 5.37 | 18.9 | 3.2 | 10.7 | 13.2 | 27.7 | 1.68 | 3.3 | 1.89 | 4.17 |
| COc1ccc(-c2cn(-c3cccc(C(=O)/C=C/c4ccc(O)c(OC)c4)c3)c(=O)[nH]2)cc1 | 2.48 | 7.37 | 5.85 | 28.6 | 2.55 | 6.22 | 3.47 | > 100 | 8.85 | > 100 | 2.91 | 14.2 | 2.87 | > 23.8 | 3.51 | 13.1 | 3.98 | 24.4 | 5.79 | 50.4 |
| N#Cc1ccc(C2C3=C(CCCC3=O)OC3=C2C(=O)c2ccccc2C3=O)cc1 (centres undefined) | 0.27 | 0.711 | 1.86 | 3.59 | 1.55 | 2.89 | 1.16 | 3.16 | 1.95 | 3.78 | 2.17 | 12.2 | 1.63 | 5.53 | 13.9 | 27 | 1.55 | 3.05 | 1.88 | 3.93 |
| Oc1ccc2ccccc2c1C1NN=C(c2ccccc2)S1 (centres undefined) | 0.443 | 11.8 | 0.812 | 20 | 0.343 | > 40 | 0.61 | 35.7 | 0.454 | 31.7 | 0.645 | > 100 | 0.467 | > 56.9 | 1.34 | 14.1 | 1.56 | 21 | 0.339 | 17.8 |
